From patent publication US20160144021A1, “Vaccine Composition And Method Of Use” (MEDIMMUNE, LLC, priority 2013, published 2016)

Legend:
Type in all cases: in vivo
RSV A2 [1] = experiment: Lung and nose viral titers by plaque assay after RSV challenge, naive cotton rats; conditions: 0.3 μg RSV sF IM, 4 days post challenge
RSV sF protein = experiment: IFNγ and IL-4 ELISPOT of splenocytes, naive cotton rats; conditions: splenocytes 4 days post challenge, RSV sF restimulation
Description: Paired antibodies for cotton rat IFNγ (#DY565) or IL-4 (#DY584) obtained in R&D DuoSet ELISA Systems were used in ELISPOT assay formats for the evaluation of cotton rat cellular immune responses. 96 well PVDF plates (Millipore, Billerica, Mass.) were coated overnight with kit provided capture antibody (anti-IFNγ or anti-IL-4, respectively) at 10 μg/mL in PBS. Plates were blocked with cRPMI-5 for 2 hours. Cells were then incubated on blocked coated plates in cRPMI-5 for 36-48 hours in triplicate with media, RSV sF ([…]), or ConA (5 μg/mL) as a positive control. Following incubation cells were washed away, plates were incubated with included biotinylated detection antibody (1 μg/mL in PBS+1% BSA) followed by streptavidin-HRP (Mabtech, Cincinnati, Ohio) and 3-amino-9-ethylcarbazole (AEC, Vector Labs, Burlingame, Calif.). Plates were read and analyzed using a CTL ImmunoSpot reader and software (Cellular Technology Ltd).

[2] = system: F-derived CD8 peptide (KYKNAVTEL); experiment: CD8 IFNγ ELISPOT of splenocytes, 1x RSV seropositive BALB/c mice
Description: Systemic cellular immune responses to vaccination were evaluated in representative animals at Day 10 post vaccination. Additional representative animals were recalled with a viral challenge at Day 69 and evaluated for long-term cellular immune responses at Day 73, 4 days post viral challenge. For each of the groups, 3-5 individual splenocyte samples were prepared. CD4 T-cell readouts were assessed by multiplexed cytokine analysis of supernatant levels of a panel of secreted cytokines (including IFNγ, IL-5, IL-10, IL-13, and IL-17) following a 72-hour restimulation period with RSV sF. CD8 T-cell readouts were assessed by 2 methods: ELISPOT counts of IFNγ-secreting cells following a 36-48 hour restimulation period with an F-derived CD8 peptide ([…] aa 85-93) (SEQ ID NO: 12) and intracellular staining and quantification of the percentage of F-specific polyfunctional (IFNγ+ TNFα+IL-2+) CD8 T cells following a 5-hour restimulation period with the F-derived CD8 peptide.

RSV A2 [3] = experiment: Lung and nose RSV titers after challenge, vaccinated Sprague Dawley rats; conditions: 10 or 100 μg RSV sF, 4 days post challenge
Description: In a subsequent study, the immunogenicity and protection following a prime-boost regimen of RSV-SF was evaluated. 40 naive female Sprague Dawley rats were divided into designated vaccine cohorts of 5-6 animals per cohort. Briefly, test groups were given RSV sF (10 μg or 100 μg per animal) without adjuvant or RSV sF (10 μg or 100 μg per animal) with GLA-SE (2.5 μg in 2% SE). Negative control groups were dosed with placebo (PBS buffer) or adjuvant GLA-SE (2.5 μg/2%) without RSV sF. […] Groups 1-6 were inoculated IM with 500 μL of designated vaccine article on Day 0 and Day 22, while Group 7 was inoculated IN with 200 μL of RSV A2 virus on day 0 only. […] Rats were euthanized at 4 days post challenge on Day 46, the day of peak viral replication determined from Study 1. Lungs (excluding 1 lobe which was formalin-fixed) and noses were homogenized and quantified for viral titers.

## RSV sF: RSV soluble F protein, amino acids 1-524 of the RSV A2 F sequence lacking the transmembrane domain, given without adjuvant
RSV A2 [1]
  mean RSV titer in the lungs: 5.4 log10 pfu/gram
  mean RSV titer in the nose: 4.9 log10 pfu/gram
RSV sF protein
  F-specific IFNγ ELISPOT response (mean): 58 SFU/million cells
[2]; Day 10 post vaccination, highest dose (10 μg) RSV sF
  F-specific CD8 IFNγ ELISPOT response: 224 SFU/million
[2]; Day 10 post vaccination, range across RSV sF doses 0.4-10 μg
  F-specific CD8 IFNγ ELISPOT response (mean): 72-224 SFU/million
[2]; Day 73, 4 days post RSV challenge, range across RSV sF doses
  recall F-specific CD8 IFNγ ELISPOT response (means): 62-243 SFU/million
RSV A2 [3]
  animals per group with titers below the limit of detection: 1-2
